Measured values: US9790217B2, “Pyridinyloxy- and phenyloxy-pyrazolyl compounds” (Hoffmann-La Roche Inc., priority 2014, dated 2017)
pEC50: −log10 of the molar value.

Assays:
[1] = system: patients with primary aldosteronism; settings: cited from earlier work
[2] = system: rats with experimental heart failure; settings: cited from earlier work
[3] = system: rat model of chronic kidney disease; settings: rat CKD model, cited from earlier work; for plasma aldosterone: FAD286 4 weeks, spironolactone 4 and 8 weeks of treatment
[4] = target: human CYP11B2 (Homo sapiens (Human), UniProt P19099); assay: G-402 cellular enzyme assay, human CYP11B2 (aldosterone release, HTRF); type: cell-based; settings: G-402 cells expressing human CYP11B2; 1 μM Deoxycorticosterone
Sequence of human CYP11B2 (P19099 25-503): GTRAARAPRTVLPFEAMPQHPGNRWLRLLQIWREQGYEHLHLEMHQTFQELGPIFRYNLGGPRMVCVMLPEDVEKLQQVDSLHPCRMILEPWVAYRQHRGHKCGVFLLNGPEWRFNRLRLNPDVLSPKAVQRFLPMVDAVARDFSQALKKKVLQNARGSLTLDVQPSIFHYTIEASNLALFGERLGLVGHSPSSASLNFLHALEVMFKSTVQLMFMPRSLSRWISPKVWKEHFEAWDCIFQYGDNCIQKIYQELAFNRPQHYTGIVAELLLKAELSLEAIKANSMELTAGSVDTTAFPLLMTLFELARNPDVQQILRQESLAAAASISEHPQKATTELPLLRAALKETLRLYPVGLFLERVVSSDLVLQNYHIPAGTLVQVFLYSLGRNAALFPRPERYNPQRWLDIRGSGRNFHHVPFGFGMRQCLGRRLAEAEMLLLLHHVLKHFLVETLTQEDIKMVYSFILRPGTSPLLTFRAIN
Text: (§1) Herein we identified the use of the G-402 cell line as a host cell to ectopically express (transiently or stably) enzymes of the CYP11 family. Specifically we developed stable G-402 cells expressing ectopically human CYP11B1, human CYP11B2, human CYP11A1, cynmolgus CYP11B1 or cynomolgus CYP11B2 enzyme activity. Importantly the identified cell line G-402 expresses co-factors (adrenodoxin and adrenodoxin reductase) important for the activity of the CYP11 family and no relevant enzyme activity of the CYP11 family (in comparison to H295R cells) was detected in these cells. Therefore the G-402 cell line is uniquely suited as a host cell for the ectopic expression of enzymes from the CYP11 family.
(§2) G-402 cells can be obtained from ATCC (CRL-1440) and were originally derived from a renal leiomyoblastoma.
(§3) The expression plasmids contains the ORF for either human/cyno CYP11B1 or CYP11B2 under the control of a suitable promoter (CMV-promoter) and a suitable resistance marker (neomycin). Using standard techniques the expression plasmid is transfected into G-402 cells and these cells are then selected for expressing the given resistance markers. Individual cell-clones are then selected and assessed for displaying the desired enzymatic activity using 11-Deoxycorticosterone (Cyp11B2) or 11-Deoxycortisol (Cyp11B1) as a substrate.
(§4) G-402 cells expressing CYP11 constructs were established as described above and maintained in McCoy's 5a Medium Modified, ATCC Catalog No. 30-2007 containing 10% FCS and 400 μg/ml G418 (Geneticin) at 37° C. under an atmosphere of 5% CO2/95% air. Cellular enzyme assays were performed in DMEM/F12 medium containing 2.5% charcoal treated FCS and appropriate concentration of substrate (0.3-10 uM 11-Deoxycorticosterone, 11-Deoxycortisol or Corticosterone). For assaying enzymatic activity, cells were plated onto 96 well plates and incubated for 16 h. An aliquot of the supernatant is then transferred and analyzed for the concentration of the expected product (Aldosterone for CYP11B2; Cortisol for CYP11B1). The concentrations of these steroids can be determined using HTRF assays from CisBio analyzing either Aldosterone or Cortisol.
(§5) Inhibition of the release of produced steroids can be used as a measure of the respective enzyme inhibition by test compounds added during the cellular enzyme assay. The dose dependent inhibition of enzymatic activity by a compound is calculated by means of plotting added inhibitor concentrations (x-axes) vs. measured steroid/product level (y-axes). The inhibition is then calculated by fitting the following 4-parameter sigmoidal function (Morgan-Mercer-Flodin (MMF) model) to the raw data points using the least squares method:
(§6) [formula] wherein, A is the maximum y value, B is the EC50 factor determined using XLFit, C is the minimum y value and D is the slope value.
(§7) EC50 values for compounds claimed herein were tested with the G402-based assay system described. Cyp11B2 enzyme activity was tested in presence of 1 μM Deoxycorticosterone and variable amounts of inhibitors; Cyp11B1 enzyme activity was tested in presence of 1 μM Deoxycortisol and variable amounts of inhibitors.

[5] = target: human CYP11B1 (Homo sapiens (Human), UniProt P15538); assay: G-402 cellular enzyme assay, human CYP11B1 (cortisol release, HTRF); type: cell-based; settings: G-402 cells expressing human CYP11B1; 1 μM Deoxycortisol
Sequence of human CYP11B1 (P15538 25-503): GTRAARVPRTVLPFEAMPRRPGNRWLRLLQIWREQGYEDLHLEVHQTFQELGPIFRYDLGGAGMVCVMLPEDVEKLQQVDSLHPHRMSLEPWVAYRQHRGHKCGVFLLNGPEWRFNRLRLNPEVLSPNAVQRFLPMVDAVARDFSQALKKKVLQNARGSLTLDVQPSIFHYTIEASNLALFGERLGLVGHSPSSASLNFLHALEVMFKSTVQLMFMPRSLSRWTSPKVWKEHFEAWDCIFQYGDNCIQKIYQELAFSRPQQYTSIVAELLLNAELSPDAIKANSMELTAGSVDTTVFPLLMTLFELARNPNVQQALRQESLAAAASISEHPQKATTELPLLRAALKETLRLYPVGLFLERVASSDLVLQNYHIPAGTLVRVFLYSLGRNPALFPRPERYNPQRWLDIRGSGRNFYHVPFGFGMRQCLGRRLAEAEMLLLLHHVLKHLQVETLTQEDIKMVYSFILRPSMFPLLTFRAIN
Text: as §1, §2, §3, §4, §5, §6, §7

SMILES: N#Cc1ccc([C@H]2CCc3cncn32)c(F)c1 [LCI699]
- blood pressure [1]: mildly decreased
- hypokalemia [1]: corrected
- circulating aldosterone levels ([1]; oral): significantly lower

SMILES: N#Cc1ccc(C2CCCc3cncn32)cc1 (centres unmarked) [FAD286]
- blood pressure and cardiovascular function and structure [2]: improved
- kidney function and morphology [2]: improve
- plasma aldosterone [3]: reduced
- cardiac and aortic medial hypertrophy [3]: attenuated
- renal effects of angiotensin II and high salt (albuminuria, azotemia, renovascular hypertrophy, glomerular injury, PAI-1, osteopontin mRNA, tubulointerstitial fibrosis) [3]: prevented

SMILES: CC(=O)S[C@@H]1CC2=CC(=O)CC[C@]2(C)[C@H]2CC[C@@]3(C)[C@@H](CC[C@@]34CCC(=O)O4)[C@H]12 [spironolactone]
- plasma aldosterone [3]: increased
- angiotensin II and salt-stimulated PAI-1 mRNA expression in the aorta and the heart [3]: enhanced
- cardiac and aortic medial hypertrophy [3]: attenuated
- renal effects of angiotensin II and high salt (albuminuria, azotemia, renovascular hypertrophy, glomerular injury, PAI-1, osteopontin mRNA, tubulointerstitial fibrosis) [3]: prevented

SMILES: COc1ccc(-c2[nH]ncc2Oc2ccc(Cl)cc2)c(OC)c1 [Example 5, 4-(4-Chlorophenoxy)-3-(2,4-dimethoxyphenyl)-1H-pyrazole]
- pEC50 [4]: 8.60
- pEC50 [5]: 7.94

SMILES: Fc1cc(Cl)ccc1-c1[nH]ncc1Oc1ccc(C(F)(F)F)cc1 [Example 27, 5-(4-Chloro-2-fluorophenyl)-4-[4-(trifluoromethyl)phenoxy]-1H-pyrazole]
- pEC50 [4]: 6.24
- pEC50 [5]: 5.48

SMILES: N#Cc1ccc(Oc2cn[nH]c2-c2ccccc2OCc2ccncc2)cc1 [Example 76, 4-[[3-[2-(Pyridin-4-ylmethoxy)phenyl]-1H-pyrazol-4-yl]oxy]benzonitrile]
- pEC50 [4]: 9.70
- pEC50 [5]: 8.17

SMILES: Cn1nncc1COc1c(Cl)cccc1-c1[nH]ncc1Oc1ccc(C#N)cc1 [Example 90, 4-[[3-[3-Chloro-2-[(3-methyltriazol-4-yl)methoxy]phenyl]-1H-pyrazol-4-yl]oxy]benzonitrile]
- pEC50 [4]: 6.80
- pEC50 [5]: 5.80

SMILES: N#Cc1ccc(Oc2cn[nH]c2-c2cccc(OCc3ccccc3)c2)cc1 [Example 36, 4-[[5-(3-Phenylmethoxyphenyl)-1H-pyrazol-4-yl]oxy]benzonitrile]
- pEC50 [4]: 7.77
- pEC50 [5]: 7.28

SMILES: Cc1cccc(Oc2c[nH]nc2-c2ccc(Cl)cc2Cl)n1 [Example 22, 2-[[3-(2,4-Dichlorophenyl)-1H-pyrazol-4-yl]oxy]-6-methylpyridine]
- pEC50 [4]: 7.38
- pEC50 [5]: 6.21

SMILES: N#Cc1ccc(Oc2cn[nH]c2-c2ccccc2OCc2ccccc2)cc1 [Example 41, 4-[[5-(2-Phenylmethoxyphenyl)-1H-pyrazol-4-yl]oxy]benzonitrile]
- pEC50 [4]: 10.00
- pEC50 [5]: 9.30

SMILES: N#Cc1ccc(Oc2cn[nH]c2-c2cnn(Cc3ccccc3)c2)cc1 [Example 68, 4-[[5-(1-Benzylpyrazol-4-yl)-1H-pyrazol-4-yl]oxy]benzonitrile]
- pEC50 [4]: 6.36
- pEC50 [5]: 5.62

SMILES: N#Cc1ccc(Oc2cn[nH]c2-c2ccccc2OCc2ccccn2)cc1 [Example 79, 4-[[3-[2-(Pyridin-2-ylmethoxy)phenyl]-1H-pyrazol-4-yl]oxy]benzonitrile]
- pEC50 [4]: 9.70
- pEC50 [5]: 8.60

SMILES: N#Cc1ccc(Oc2cn[nH]c2-c2cccc(OCc3ccncc3)c2F)cc1 [Example 85, 4-[[3-[2-Fluoro-3-(pyridin-4-ylmethoxy)phenyl]-1H-pyrazol-4-yl]oxy]benzonitrile]
- pEC50 [4]: 9.52
- pEC50 [5]: 8.28

SMILES: Fc1cc(C(F)(F)F)ccc1-c1[nH]ncc1Oc1ccc(Cl)cc1 [Example 13, 4-(4-Chlorophenoxy)-5-[2-fluoro-4-(trifluoromethyl)phenyl]-1H-pyrazole]
- pEC50 [4]: 6.39
- pEC50 [5]: 5.61

SMILES: N#Cc1ccc(Oc2cn[nH]c2-c2cccc(F)c2F)cc1 [Example 29, 4-[[5-(2,3-Difluorophenyl)-1H-pyrazol-4-yl]oxy]benzonitrile]
- pEC50 [4]: 8.12
- pEC50 [5]: 6.79

SMILES: N#Cc1ccc(Oc2cn[nH]c2-c2cccc(OCc3ccccn3)c2)cc1 [Example 50, 4-[[3-[3-(Pyridin-2-ylmethoxy)phenyl]-1H-pyrazol-4-yl]oxy]benzonitrile]
- pEC50 [4]: 7.98
- pEC50 [5]: 7.29

SMILES: N#Cc1ccc(Oc2cn[nH]c2-c2ccnc(Cl)c2)cc1 [Example 37, 4-[[5-(2-Chloropyridin-4-yl)-1H-pyrazol-4-yl]oxy]benzonitrile]
- pEC50 [4]: 6.50
- pEC50 [5]: 4.98

SMILES: Cn1nncc1COc1cccc(-c2[nH]ncc2Oc2ccc(C#N)cc2)c1 [Example 53, 4-[[3-[3-[(3-Methyltriazol-4-yl)methoxy]phenyl]-1H-pyrazol-4-yl]oxy]benzonitrile]
- pEC50 [4]: 7.62
- pEC50 [5]: 6.70

SMILES: N#Cc1ccc(Oc2cn[nH]c2-c2cccc(C(=O)N3CCOCC3)c2)cc1 [Example 45, 4-[[3-[3-(Morpholine-4-carbonyl)phenyl]-1H-pyrazol-4-yl]oxy]benzonitrile]
- pEC50 [4]: 6.40
- pEC50 [5]: 5.62

SMILES: N#Cc1ccc(Oc2cn[nH]c2-c2cccc(OCc3ccnc(Cl)c3)c2)cc1 [Example 55, 4-[[3-[3-[(2-Chloropyridin-4-yl)methoxy]phenyl]-1H-pyrazol-4-yl]oxy]benzonitrile]
- pEC50 [4]: 7.48
- pEC50 [5]: 6.54

SMILES: Fc1cccc(-c2[nH]ncc2Oc2ccc(Cl)cc2)c1Cl [Example 34, 5-(2-Chloro-3-fluorophenyl)-4-(4-chlorophenoxy)-1H-pyrazole]
- pEC50 [4]: 7.41
- pEC50 [5]: 6.58

SMILES: Fc1ccc(-c2[nH]ncc2Oc2ccc(Cl)cc2)c(F)c1 [Example 15, 4-(4-Chlorophenoxy)-5-(2,4-difluorophenyl)-1H-pyrazole]
- pEC50 [4]: 7.73
- pEC50 [5]: 6.80
